Assay in all cases: DTP human tumour cell line panel, 48 h
Assay [1] relates to DMS 114 small cell lung.
In assay [2] the test system is DMS 273 small cell lung.
The subject of assay [3] is HOP-18 NSCLC.
Assay [4] concerns LXFL 529 NSCLC.
The subject of assay [5] is M19-MEL melanoma.
Assay [6] concerns MDA-N.
In assay [7] the test system is SNB-78 CNS.
In assay [8] the test system is XF 498 CNS.
For assay [9], the system named is RXF-631 renal.

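The compound was tested at five concentrations on cells cultured in 96-well plates, with a 48-hour exposure period. GI50: concentration for 50% inhibition of growth. At the TGI there is no net growth.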

In general, GI50 refers to the concentration giving 50% growth inhibition. One may read the TGI as the concentration at which net growth stops. Read a low TGI as greater sensitivity of the cells. As to `[CH3][Sn]([CH3])([CH3])[O]C(=O)C(O)c1ccccc1` (configuration not stated), the GI50 is 5.78 µM in assay [1]; 3.01 µM in [2]; more than 100 µM in assay [3]; 2.98 µM in [4]; 3.31 µM in assay [5]; 3.62 µM in [6]. Also, the GI50 in [7] was 42.7 µM; in [8], 2.92 µM. Further, the TGI is 31.2 µM in assay [1]; 14 µM in assay [2]; more than 100 µM in [3]; more than 28.4 µM in assay [4]; 9.6 µM in assay [5]; 15.9 µM in assay [6]. Besides, the TGI is more than 100 µM in assay [7] and 20.9 µM in [8].
As for `CCOC(=O)C/C(N)=C(\C#N)C(=O)OCC`, the TGI in assay [1], in [2], in [3], in [4], in [5] and in [9] was more than 100 µM in each case. Further, the total growth inhibition concentration (TGI) in assay [7] and in [8] was more than 100 µM in each case.
Turning to `COC(=O)CSc1n[nH]c(-c2ccccc2)n1`, the TGI in [1], in assay [2], in [3], in assay [4], in assay [5] and in assay [7] was more than 100 µM throughout.
Regarding `COc1ccc(/C=c2\sc3nnc(CCC(=O)Nc4cccc(C(F)(F)F)c4)n3c2=O)cc1`, the TGI in [1], in assay [2], in assay [3], in assay [4], in assay [5] and in assay [9] was more than 100 µM each time. The concentration for total growth inhibition (TGI) in [7] and in [8] was more than 100 µM each time.
As for `O=C(NCCSSCCNC(=O)/C(Cc1ccc(O)c(Br)c1)=N/O)/C(Cc1ccc(O)c(Br)c1)=N/O`, the TGI in [6] came out at 6.99 µM.
With `COc1ccc2oc(-c3cc4cc(OC)ccc4o3)cc2c1`, the TGI in [2], in assay [4], in [9], in assay [7] and in assay [8] was more than 100 µM each time.
On to `CCOc1ccc(/C=N\N2C(=O)c3ccccc3C2=O)cc1`, for which the TGI in [1], in assay [2], in assay [3], in [4], in assay [5] and in [9] was more than 100 µM each time. Also, the TGI in assay [7] and in assay [8] was more than 100 µM each time.
As to `Cc1cc2oc(=O)c(Cl)c(Cl)c2c(C)c1Cl`, the TGI in assay [6] came to 10.8 µM.
For `CN=c1ss/c(=N\C(=S)N(C)C)n1C1CCCCC1`, the TGI in assay [1] is more than 31.6 µM; in assay [2], more than 31.6 µM; in assay [3] it was more than 31.6 µM; in assay [4], more than 31.6 µM; in assay [5], more than 31.6 µM; in [9], more than 100 µM. In addition, the TGI in assay [7] and in [8] was more than 31.6 µM in each case.
`COc1cc(-c2ccccc2)c(OC)cc1CCl`: the TGI in [1], in assay [2], in [3], in [5], in [9] and in [7] was more than 100 µM throughout. This compound yielded a TGI in assay [8] of more than 100 µM.
As to `COc1cc(-c2ccc(Nc3ccccc3C(=O)O)c(OC)c2)ccc1Nc1ccccc1C(=O)O`, the TGI is more than 100 µM in assay [1]; more than 100 µM in assay [2]; more than 100 µM in assay [3]; more than 100 µM in assay [4]; 97.5 µM in assay [6]; more than 100 µM in assay [7]. In addition, in assay [8], the TGI was more than 100 µM.
Regarding `O=C1/C(=C\c2ccc([N+](=O)[O-])cc2)CS(=O)(=O)C/C1=C/c1ccc([N+](=O)[O-])cc1`, in assay [6], the GI50 is 0.305 µM and the TGI came out at 1.63 µM.
As for `O=C(O)c1ccccc1-c1ccccc1C(=O)Nc1ccc2c(c1)Cc1ccccc1-2`, the total growth inhibition concentration (TGI) in assay [6] was 77.1 µM.
Consider `CC(C)(C)c1cc(Oc2ccc(C#N)c(C#N)c2)cc(C(C)(C)C)c1`, for which the TGI in [1] is more than 100 µM; in [2] it was 27.1 µM; in [3] it was more than 100 µM; in [4], more than 100 µM; in assay [5] it was more than 100 µM; in [9], more than 100 µM. The total growth inhibition concentration (TGI) in assay [7] and in [8] was more than 100 µM throughout.
As to `CN(C(=O)C12C3C4C1C1C2C3C41C(=O)N(C)C(C)(C)C)C(C)(C)C` (configuration not stated), the concentration for total growth inhibition (TGI) in assay [1], in assay [2], in assay [4], in [5], in [9] and in [7] was more than 50 µM each time. This compound also returned a TGI in [8] of more than 50 µM.
In the case of `Cc1ccc(C)c(NC(=O)C(=O)CC(=O)c2cccc3ccccc23)c1`, the TGI in assay [1], in assay [2], in assay [3], in assay [4], in assay [5] and in [9] was more than 100 µM in each case. In assay [7], this compound had a TGI of more than 100 µM.
In the case of `O=C1C=CC(=O)c2c1cc1ccccc1c2O`, the TGI in [2] is 29.5 µM; in [3] it was 32.3 µM; in assay [4], 3.99 µM; in assay [5], 11.3 µM; in assay [6], 18.5 µM; in [7], 10.5 µM. The same compound yielded a TGI in assay [8] of 8.39 µM.

The record behind these values is PubChem BioAssay (NCI).
